For five compounds, MIC, logP and hemolysis results are on record in ChEMBL document CHEMBL4334431, “Gramicidin S-inspired antimicrobial cyclodextrin to disrupt gram-negative and gram-positive bacterial membranes” (Medchemcomm, 2019).

As usually defined, the MIC is the smallest concentration in the dilution series that meets the test's criterion for growth inhibition. For orientation: logP means the decadic logarithm of the partition coefficient of the neutral form, usually between octanol and water. Read a low logP as lower lipophilicity.

≈ marks a conversion by molar mass, not a printed value. Square brackets hold non-standard residues; d marks the D form. Peptide text beside a SMILES is read from it. Orn = NCCC[C@H](N)C(=O)O A value given as a limit tells only on which side of the number the result lay.

Data set [1] concerns Pseudomonas aeruginosa. Description: Antibacterial activity against Pseudomonas aeruginosa PAO1 assessed as bacterial growth inhibition after 20 hrs by liquid microdilution method. Format: functional.
Data set [2] concerns Escherichia coli. Description: Antibacterial activity against Escherichia coli K12 W3110 assessed as bacterial growth inhibition after 20 hrs by liquid microdilution method. Format: functional.
A short description of data set [3]: Partition coefficient, log P of compound. Format: physicochemical. The following applies: octanol/water.
The subject of data set [4] is Bacillus subtilis. Description: Antibacterial activity against Bacillus subtilis 168 assessed as bacterial growth inhibition after 20 hrs by liquid microdilution method. Particulars: Bacillus subtilis, 168, 20 h. The data set is classed as functional. For orientation: Broth dilution looks for growth in wells or tubes with falling amounts of substance.
Data set [5] concerns Salmonella typhimurium. The experiment in a line: Antibacterial activity against Salmonella typhimurium LT2 assessed as bacterial growth inhibition after 20 hrs by liquid microdilution method. The following applies: Salmonella enterica, LT2, 20 h. The data set is classed as functional, Salmonella enterica subsp. enterica serovar Typhimurium.
The subject of data set [6] is Staphylococcus aureus. Description: Antibacterial activity against Staphylococcus aureus FDA 209P assessed as bacterial growth inhibition after 20 hrs by liquid microdilution method. Format: functional.
Data set [7] in a line: Haemolytic activity in rabbit RBCs at 50 uM relative to control. The following applies: rabbit red blood cells (erythrocytes), read-out: Activity. The data set is classed as ADME, cell-based, Oryctolagus cuniculus, Erythrocyte.

With COLISTIN, the MIC stood at 2 µM in data set [1] and 0.7 µM in data set [2] (K-12 substr. W3110).

Turning to `NCc1cn(C[C@H]2O[C@@H]3O[C@H]4[C@H](O)[C@@H](O)[C@@H](O[C@H]5[C@H](O)[C@@H](O)[C@@H](O[C@H]6[C@H](O)[C@@H](O)[C@@H](O[C@H]7[C@H](O)[C@@H](O)[C@@H](O[C@H]8[C@H](O)[C@@H](O)[C@@H](O[C@H]9[C@H](O)[C@@H](O)[C@@H](O[C@H]%10[C@@H](O)[C@H](O)[C@@H](O[C@H]2[C@H](O)[C@H]3O)O[C@@H]%10Cn2cc(CN)nn2)O[C@@H]9Cn2cc(CN)nn2)O[C@@H]8Cn2cc(CN)nn2)O[C@@H]7Cn2cc(CN)nn2)O[C@@H]6Cn2cc(CN)nn2)O[C@@H]5Cn2cc(CN)nn2)O[C@@H]4Cn2cc(CN)nn2)nn1`, the MIC in data set [1] (PAO1, 20 h) is greater than 45 µM; in data set [2] (K-12 substr. W3110, 20 h), greater than 45 µM; in data set [4] it was 22 µM (≈ 42.6 µg/mL); in data set [5], greater than 45 µM; in data set [6], greater than 45 µM. The compound also displayed a logP in data set [3] of -2.66. Besides, in data set [7], the hemolysis at 50 µM was found to be 0%.

Consider `CCCCCCCCCC(=O)N[C@@H](Cc1c[nH]c2ccccc12)C(=O)N[C@H](CC(N)=O)C(=O)N[C@@H](CC(=O)O)C(=O)N[C@@H]1C(=O)NCC(=O)N[C@@H](CCCN)C(=O)N[C@@H](CC(=O)O)C(=O)N[C@H](C)C(=O)N[C@@H](CC(=O)O)C(=O)NCC(=O)N[C@H](CO)C(=O)N[C@@H]([C@H](C)CC(=O)O)C(=O)N[C@@H](CC(=O)c2ccccc2N)C(=O)O[C@@H]1C`, for which the MIC in data set [6] is 3 µM (≈ 4.86 µg/mL).

On to `CC(C)C(=O)O[C@@H]1[C@@H](OC(=O)C(C)C)[C@H]2O[C@H]3[C@H](OC(=O)C(C)C)[C@@H](OC(=O)C(C)C)[C@@H](O[C@H]4[C@H](OC(=O)C(C)C)[C@@H](OC(=O)C(C)C)[C@@H](O[C@H]5[C@H](OC(=O)C(C)C)[C@@H](OC(=O)C(C)C)[C@@H](O[C@H]6[C@H](OC(=O)C(C)C)[C@@H](OC(=O)C(C)C)[C@@H](O[C@H]7[C@H](OC(=O)C(C)C)[C@@H](OC(=O)C(C)C)[C@@H](O[C@H]8[C@H](OC(=O)C(C)C)[C@@H](OC(=O)C(C)C)[C@@H](O[C@H]9[C@H](OC(=O)C(C)C)[C@@H](OC(=O)C(C)C)[C@@H](O[C@@H]1[C@@H](Cn1cc(CN)nn1)O2)O[C@@H]9Cn1cc(CN)nn1)O[C@@H]8Cn1cc(CN)nn1)O[C@@H]7Cn1cc(CN)nn1)O[C@@H]6Cn1cc(CN)nn1)O[C@@H]5Cn1cc(CN)nn1)O[C@@H]4Cn1cc(CN)nn1)O[C@@H]3Cn1cc(CN)nn1`, for which the minimal inhibitory concentration (MIC) was 31 µM (≈ 94.8 µg/mL) in data set [1] (PAO1, 20 h); greater than 32 µM in data set [2] (K-12 substr. W3110, 20 h); greater than 32 µM in data set [4]; greater than 31 µM in data set [5]; greater than 32 µM in data set [6]. The same compound came in with a log partition coefficient (logP) in data set [3] of 0.24. The hemolysis at 50 µM in data set [7] worked out at 101%.

For `CC(C)C[C@@H]1NC(=O)[C@H](CCCN)NC(=O)[C@H](C(C)C)NC(=O)[C@@H]2CCCN2C(=O)[C@@H](Cc2ccccc2)NC(=O)[C@H](CC(C)C)NC(=O)[C@H](CCCN)NC(=O)[C@H](C(C)C)NC(=O)[C@@H]2CCCN2C(=O)[C@@H](Cc2ccccc2)NC1=O` (cyclo(V[Orn]L[dF]PV[Orn]L[dF]P)), the MIC is 28 µM (≈ 32 µg/mL) in data set [2] (K-12 substr. W3110, 20 h) and 4 µM (≈ 4.57 µg/mL) in data set [6].
